Calls of active or inactive are those of the source. The calls are words filed in the database; no cut-off is given here.
Columns and labels:
[1] = Half life in KCl/HCl buffer at pH 2.32 after 24 hrs by HPLC-MS analysis; assay type: physicochemical
Huh-7 [2] = experiment: Antiproliferative activity against human HuH7 cells after 48 hrs by MTT assay; assay type: functional, cell-based; settings: Huh-7, 48 h
A498 [3] = experiment: Antiproliferative activity against human A498 cells after 48 hrs by MTT assay; assay type: functional, cell-based; settings: A498, 48 h
HCT-116 = experiment: Antiproliferative activity against human HCT116 cells after 48 hrs by MTT assay; assay type: functional, cell-based; settings: HCT-116, 48 h
NCI-H727 [4] = experiment: Antiproliferative activity against human NCI-H727 cells after 48 hrs by MTT assay; assay type: functional, cell-based; settings: NCI-H727, 48 h
HUVEC [5] = experiment: Antiangiogenic activity in HUVEC assessed as inhibition of tube like structures formation at < 100 nM after 14 hrs by matrigel based inverted microscopy; assay type: functional, cell-based; settings: Homo sapiens
HUVEC [6] = experiment: Antiangiogenic activity in HUVEC assessed as inhibition of tube like structures formation at 100 nM to 1 uM after 14 hrs by matrigel based inverted microscopy; assay type: functional, cell-based; settings: Homo sapiens
HUVEC [7] = experiment: Antiangiogenic activity in HUVEC assessed as inhibition of tube like structures formation after 14 hrs by matrigel based inverted microscopy; assay type: functional, cell-based; settings: Homo sapiens
HUVEC [8] = experiment: Cytotoxicity against HUVEC assessed as decrease in cell viability after 48 hrs by MTT assay; assay type: functional, cell-based; settings: Homo sapiens
A498 [9] = experiment: Downregulation of MET in human A498 cells at 10 pM to 1 uM after 24 hrs by AlphaLISA based immuno assay; assay type: functional, cell-based
HUVEC [10] = experiment: Downregulation of VEGFR2 expression level in HUVEC at >= 10 nM after 14 hrs by immunoblot analysis; assay type: functional, cell-based; settings: Homo sapiens
Huh-7 [11] = experiment: Inhibition of IL-6 secretion in human HuH7 cells at 10 pM to 1 uM after 24 hrs by AlphaLISA based immuno assay; assay type: functional, cell-based
A498 [12] = experiment: Downregulation of EGFR in human A498 cells at 10 pM to 1 uM after 24 hrs by AlphaLISA based immuno assay; assay type: functional, cell-based
Huh-7 [13] = experiment: Downregulation of FGFR4 in human HuH7 cells at 10 pM to 1 uM after 24 hrs by AlphaLISA based immuno assay; assay type: functional, cell-based
Huh-7 [14] = experiment: Inhibition of VEGF-A secretion in human HuH7 cells at 10 pM to 1 uM after 24 hrs by AlphaLISA based immuno assay; assay type: functional, cell-based
HUVEC [15] = experiment: Antiangiogenic activity in HUVEC assessed as diminishing of branch points at 10 pM after 14 hrs by inverted microscopy; assay type: functional, cell-based; settings: Homo sapiens
A498 [16] = experiment: Inhibition of IL-6 secretion in human A498 cells at 10 pM to 1 uM after 24 hrs by AlphaLISA based immuno assay; assay type: functional, cell-based
A498 [17] = experiment: Inhibition of VEGF-A secretion in human A498 cells at 10 pM to 1 uM after 24 hrs by AlphaLISA based immuno assay; assay type: functional, cell-based
NCI-H727 [18] = experiment: Downregulation of VEGFR2 in human NCI-H727 cells at 10 pM to 1 uM after 24 hrs by AlphaLISA based immuno assay; assay type: functional, cell-based
NCI-H727 [19] = experiment: Downregulation of IGF1Rbeta in human NCI-H727 cells at 10 pM to 1 uM after 24 hrs by AlphaLISA based immuno assay; assay type: functional, cell-based
NCI-H727 [20] = experiment: Inhibition of VEGF-A secretion in human NCI-H727 cells at 10 pM to 1 uM after 24 hrs by AlphaLISA based immuno assay; assay type: functional, cell-based
HUVEC [21] = experiment: Antiangiogenic activity in HUVEC assessed as decrease in number of junctions at 10 pM after 14 hrs by branch point counting analysis; assay type: functional, cell-based; settings: Homo sapiens
NCI-H727 [22] = experiment: Inhibition of IL-6 secretion in human NCI-H727 cells at 10 pM to 1 uM after 24 hrs by AlphaLISA based immuno assay; assay type: functional, cell-based
HUVEC [23] = experiment: Antiangiogenic activity in HUVEC assessed as inhibition of tube like structures formation at 10 pM to 1 uM after 14 hrs by matrigel based inverted microscopy; assay type: functional, cell-based; settings: Homo sapiens

Compound `CC[C@H](C)[C@H]1C(=O)N2CCC[C@H]2C(=O)O[C@H](C(C)(C)C)C[C@@H](C)C[C@@H](O)[C@H](C)C2=N[C@@H](CCC(=O)N[C@@H](Cc3ccc(OC)cc3)C(=O)N(C)[C@@H](C)C(=O)N1C)CS2` has a half-life [1] of over 24 h.

`CC[C@H](C)[C@H]1C(=O)N2CCC[C@H]2C(=O)O[C@H](C(C)(C)C)C[C@@H](C)C[C@@H](O)C(C)(C)C2=N[C@H](CCC(=O)N[C@@H](Cc3ccc(OC)cc3)C(=O)N(C)[C@@H](C)C(=O)N1C)CS2` gave a half-life [1] of over 24 h, an IC50 (Huh-7 [2]) of 0.00083 µM and an IC50 (A498 [3]) of 0.00335 µM. For the same compound, the IC50 (HCT-116) was 0.00147 µM and the IC50 (NCI-H727 [4]) was 0.00255 µM.

For `CCN(CC)CCNC(=O)c1c(C)[nH]c(/C=C2\C(=O)Nc3ccc(F)cc32)c1C` [SUNITINIB], the inhibition (HUVEC [5]) was “inactive”, the IC50 (Huh-7 [2]) was 4.71 µM and the IC50 (A498 [3]) was 7.98 µM. For the same compound, the inhibition (HUVEC [6]) was “Active” and the IC50 (NCI-H727 [4]) was 10.1 µM.

For `CC[C@H](C)[C@H]1C(=O)N2CCC[C@H]2C(=O)O[C@H](C(C)(C)C)C[C@@H](C)C[C@@H](O)[C@H](C)C2=N[C@H](CCC(=O)N[C@@H](Cc3ccc(OC)cc3)C(=O)N(C)[C@@H](C)C(=O)N1C)CS2`, the half-life [1] was over 24 h.

For `CC[C@H](C)[C@@H]1C(=O)N2CCC[C@@H]2C(=O)O[C@H](C(C)(C)C)C[C@@H](C)C[C@@H](O)C(C)(C)C2=N[C@H](CCC(=O)N[C@@H](Cc3ccc(OC)cc3)C(=O)N(C)[C@@H](C)C(=O)N1C)CS2`, the inhibition (HUVEC [7]) was “Dose-dependent effect”, the Activity (HUVEC [8]) was “Active” and the Activity (A498 [9]) was “Active”. For the same compound, the Activity (HUVEC [10]) was “Active”, the inhibition (Huh-7 [11]) was “Active” and the Activity (A498 [12]) was “Active”. For the same compound, the Activity (Huh-7 [13]) was “Active”, the inhibition (Huh-7 [14]) was “Active” and the Activity (HUVEC [15]) was “Active”. For the same compound, the inhibition (A498 [16]) was “Active”, the inhibition (A498 [17]) was “Active” and the Activity (NCI-H727 [18]) was “Active”. For the same compound, the Activity (NCI-H727 [19]) was “Active”, the inhibition (NCI-H727 [20]) was “Active” and the Activity (HUVEC [21]) was “Active”. The inhibition (NCI-H727 [22]) was “Active”.

In the case of `COc1cc2nccc(Oc3ccc(NC(=O)C4(C(=O)Nc5ccc(F)cc5)CC4)cc3)c2cc1OC` [CABOZANTINIB], the inhibition (HUVEC [23]) is reported as “inactive”, the IC50 (Huh-7 [2]) is reported as 4.35 µM and the IC50 (A498 [3]) is reported as 8.46 µM. The IC50 (NCI-H727 [4]) was 14 µM.

In the case of `C#Cc1cccc(Nc2ncnc3cc(OCCOC)c(OCCOC)cc23)c1` [ERLOTINIB], the inhibition (HUVEC [23]) is reported as “inactive”, the IC50 (Huh-7 [2]) is reported as 25 µM and the IC50 (A498 [3]) is reported as 12.5 µM. The IC50 (NCI-H727 [4]) was over 6.24 µM.

`CC[C@H](C)[C@H]1C(=O)N2CCC[C@H]2C(=O)O[C@H](C(C)(C)C)C[C@@H](C)C[C@@H](O)C(C)(C)C2=N[C@@H](CCC(=O)N[C@@H](Cc3ccc(OC)cc3)C(=O)N(C)[C@@H](C)C(=O)N1C)CS2` gave a half-life [1] of over 24 h and an IC50 (HCT-116) of 0.00199 µM.

From ChEMBL document CHEMBL4130518, “Apratoxin S10, a Dual Inhibitor of Angiogenesis and Cancer Cell Growth To Treat Highly Vascularized Tumors” (ACS Med Chem Lett, 2017)
